Data: US10961401B2, “UV cured benzophenone terminated quaternary ammonium antimicrobials for surfaces” (NANO SAFE COATINGS INCORPORATED, priority 2012, dated 2021)
Structures can show the parent of a compound that is named as a salt.

Columns and labels:
Pseudomonas spp. CTO7 = test: Flow-cell antimicrobial test: bacterial cell count in effluent of coated silicone tubing; type: cell-based; conditions: 100 μL effluent plated on 10% TSA
Description: Preparation of Self Assembled Monolayers on Silicone Tubing
Silicone tubing was rinsed with IPA and H2O using a peristaltic pump then dried by running air through the tubes. A 0.05% (w/v) solution of 8a in H2O and a 0.5% (w/v) solution of 4c in H2O/IPA were prepared. Tubes were coated using the peristaltic pump and filled tubes were irradiated using a UV fumehood for 25 minutes. Coated tubes were then rinsed with H2O to remove any unbound materials.
1.5% (w/v) solutions of 8a and 4c in dichloromethane (DCM) were prepared. These solutions were pumped through clean silicone tubing using a syringe and irradiated using a UV quartz lamp for 30 minutes.
Antimicrobial Test Method
The antimicrobial efficacy was determined using a flow-cell method as described in Markison C and Swan J, “The Effect of Humidity on the Survival of MRSA on Hard Surfaces”, Indoor and Built Environment, 2006, 15(1), 85-91. A 1% tryptic soy broth and an inoculum of 10×10^4 cfu/mL of Pseudomonas spp. CTO7 were pumped through silicone tubing coated with 8a, 4c and a control tube for 30 hours. The tubes were then left stagnant for a period of 2 hours after which only the 1% TSB was allowed to flow through the tubes for 48 hours. During these 48 hours effluent samples of 100 μL were collected periodically and plated on 10% trypticase soy agar (TSA) in a dilution series up to 10×10^4. Sampling periods were time zero, 3 hours, 6 hours, 24 hours, 27 hours, 30 hours, and 48 hours. The number of colonies grown on each plate was counted in order to determine antimicrobial activity.

[1] = time 0 hr, sample dilution 10^0
[2] = time 0 hr, sample dilution 10^−1
[3] = time 0 hr, sample dilution 10^−2
[4] = time 0 hr, sample dilution 10^−3
[5] = time 0 hr, sample dilution 10^−4
[6] = time 3 hr, sample dilution 10^0
[7] = time 3 hr, sample dilution 10^−1
[8] = time 3 hr, sample dilution 10^−2
[9] = time 3 hr, sample dilution 10^−3
[10] = time 3 hr, sample dilution 10^−4
[11] = time 6 hr, sample dilution 10^0
[12] = time 6 hr, sample dilution 10^−1
[13] = time 6 hr, sample dilution 10^−2
[14] = time 6 hr, sample dilution 10^−3
[15] = time 6 hr, sample dilution 10^−4
[16] = time 24 hr, sample dilution 10^0
[17] = time 24 hr, sample dilution 10^−1
[18] = time 24 hr, sample dilution 10^−2
[19] = time 24 hr, sample dilution 10^−3
[20] = time 24 hr, sample dilution 10^−4
[21] = time 27 hr, sample dilution 10^0
[22] = time 27 hr, sample dilution 10^−1
[23] = time 27 hr, sample dilution 10^−2
[24] = time 27 hr, sample dilution 10^−3
[25] = time 27 hr, sample dilution 10^−4
[26] = time 30 hr, sample dilution 10^0
[27] = time 30 hr, sample dilution 10^−1
[28] = time 30 hr, sample dilution 10^−2
[29] = time 30 hr, sample dilution 10^−3
[30] = time 30 hr, sample dilution 10^−4
[31] = time 48 hr, sample dilution 10^0
[32] = time 48 hr, sample dilution 10^−1
[33] = time 48 hr, sample dilution 10^−2
[34] = time 48 hr, sample dilution 10^−3
[35] = time 48 hr, sample dilution 10^−4

## CN(C)c1cccc2c(S(=O)(=O)NCCC[N+](C)(C)CCCCOc3ccc(C(=O)c4ccccc4)cc3)cccc12 [Compound 8a, 4-(4-benzoylphenoxy)-N-(3-(5-(dimethylamino)naphthalene-1-sulfonamido)propyl)-N,N-dimethylbutan-1-ammonium bromide]
Pseudomonas spp. CTO7; [1]
  Pseudomonas bacterial cell count on coated silicone tubing: 0 cfu/mL
Pseudomonas spp. CTO7; [2]
  Pseudomonas bacterial cell count on coated silicone tubing: 0 cfu/mL
Pseudomonas spp. CTO7; [3]
  Pseudomonas bacterial cell count on coated silicone tubing: 0 cfu/mL
Pseudomonas spp. CTO7; [4]
  Pseudomonas bacterial cell count on coated silicone tubing: 0 cfu/mL
Pseudomonas spp. CTO7; [5]
  Pseudomonas bacterial cell count on coated silicone tubing: 0 cfu/mL
Pseudomonas spp. CTO7; [6]
  Pseudomonas bacterial cell count on coated silicone tubing: 15 cfu/mL
Pseudomonas spp. CTO7; [7]
  Pseudomonas bacterial cell count on coated silicone tubing: 0 cfu/mL
Pseudomonas spp. CTO7; [8]
  Pseudomonas bacterial cell count on coated silicone tubing: 0 cfu/mL
Pseudomonas spp. CTO7; [9]
  Pseudomonas bacterial cell count on coated silicone tubing: 0 cfu/mL
Pseudomonas spp. CTO7; [10]
  Pseudomonas bacterial cell count on coated silicone tubing: 0 cfu/mL
Pseudomonas spp. CTO7; [11]
  Pseudomonas bacterial cell count on coated silicone tubing: 6 cfu/mL
Pseudomonas spp. CTO7; [12]
  Pseudomonas bacterial cell count on coated silicone tubing: 0 cfu/mL
Pseudomonas spp. CTO7; [13]
  Pseudomonas bacterial cell count on coated silicone tubing: 0 cfu/mL
Pseudomonas spp. CTO7; [14]
  Pseudomonas bacterial cell count on coated silicone tubing: 0 cfu/mL
Pseudomonas spp. CTO7; [15]
  Pseudomonas bacterial cell count on coated silicone tubing: 0 cfu/mL
Pseudomonas spp. CTO7; [16]
  Pseudomonas bacterial cell count on coated silicone tubing: 0 cfu/mL
Pseudomonas spp. CTO7; [17]
  Pseudomonas bacterial cell count on coated silicone tubing: 0 cfu/mL
Pseudomonas spp. CTO7; [18]
  Pseudomonas bacterial cell count on coated silicone tubing: 0 cfu/mL
Pseudomonas spp. CTO7; [19]
  Pseudomonas bacterial cell count on coated silicone tubing: 0 cfu/mL
Pseudomonas spp. CTO7; [20]
  Pseudomonas bacterial cell count on coated silicone tubing: 0 cfu/mL
Pseudomonas spp. CTO7; [21]
  Pseudomonas bacterial cell count on coated silicone tubing: 30 cfu/mL
Pseudomonas spp. CTO7; [22]
  Pseudomonas bacterial cell count on coated silicone tubing: 0 cfu/mL
Pseudomonas spp. CTO7; [23]
  Pseudomonas bacterial cell count on coated silicone tubing: 0 cfu/mL
Pseudomonas spp. CTO7; [24]
  Pseudomonas bacterial cell count on coated silicone tubing: 0 cfu/mL
Pseudomonas spp. CTO7; [25]
  Pseudomonas bacterial cell count on coated silicone tubing: 0 cfu/mL
Pseudomonas spp. CTO7; [26]
  Pseudomonas bacterial cell count on coated silicone tubing: 18 cfu/mL
Pseudomonas spp. CTO7; [27]
  Pseudomonas bacterial cell count on coated silicone tubing: 4 cfu/mL
Pseudomonas spp. CTO7; [28]
  Pseudomonas bacterial cell count on coated silicone tubing: 0 cfu/mL
Pseudomonas spp. CTO7; [29]
  Pseudomonas bacterial cell count on coated silicone tubing: 0 cfu/mL
Pseudomonas spp. CTO7; [30]
  Pseudomonas bacterial cell count on coated silicone tubing: 0 cfu/mL
Pseudomonas spp. CTO7; [31]
  Pseudomonas bacterial cell count on coated silicone tubing: 27 cfu/mL
Pseudomonas spp. CTO7; [32]
  Pseudomonas bacterial cell count on coated silicone tubing: 1 cfu/mL
Pseudomonas spp. CTO7; [33]
  Pseudomonas bacterial cell count on coated silicone tubing: 0 cfu/mL
Pseudomonas spp. CTO7; [34]
  Pseudomonas bacterial cell count on coated silicone tubing: 0 cfu/mL
Pseudomonas spp. CTO7; [35]
  Pseudomonas bacterial cell count on coated silicone tubing: 0 cfu/mL

## CN(C)c1cccc2c(S(=O)(=O)NCCC[N+](C)(C)CCCCOc3ccc(C(=O)c4ccccc4)cc3)cccc12 (as salt: bromide) [Compound 8a, 4-(4-benzoylphenoxy)-N-(3-(5-(dimethylamino)naphthalene-1-sulfonamido)propyl)-N,N-dimethylbutan-1-ammonium bromide]
other
  melting point: 96 to 104 °C

## CCCCCCCCCCCCCCCCCC[N+](C)(C)CCCOc1ccc(C(=O)c2ccccc2)cc1 [Compound 4c]
Pseudomonas spp. CTO7; [1]
  Pseudomonas bacterial cell count on coated silicone tubing: 300 cfu/mL
Pseudomonas spp. CTO7; [2]
  Pseudomonas bacterial cell count on coated silicone tubing: 300 cfu/mL
Pseudomonas spp. CTO7; [3]
  Pseudomonas bacterial cell count on coated silicone tubing: 48 cfu/mL
Pseudomonas spp. CTO7; [4]
  Pseudomonas bacterial cell count on coated silicone tubing: 8 cfu/mL
Pseudomonas spp. CTO7; [5]
  Pseudomonas bacterial cell count on coated silicone tubing: 0 cfu/mL
Pseudomonas spp. CTO7; [6]
  Pseudomonas bacterial cell count on coated silicone tubing: 20 cfu/mL
Pseudomonas spp. CTO7; [7]
  Pseudomonas bacterial cell count on coated silicone tubing: 0 cfu/mL
Pseudomonas spp. CTO7; [8]
  Pseudomonas bacterial cell count on coated silicone tubing: 0 cfu/mL
Pseudomonas spp. CTO7; [9]
  Pseudomonas bacterial cell count on coated silicone tubing: 0 cfu/mL
Pseudomonas spp. CTO7; [10]
  Pseudomonas bacterial cell count on coated silicone tubing: 0 cfu/mL
Pseudomonas spp. CTO7; [11]
  Pseudomonas bacterial cell count on coated silicone tubing: 160 cfu/mL
Pseudomonas spp. CTO7; [12]
  Pseudomonas bacterial cell count on coated silicone tubing: 15 cfu/mL
Pseudomonas spp. CTO7; [13]
  Pseudomonas bacterial cell count on coated silicone tubing: 0 cfu/mL
Pseudomonas spp. CTO7; [14]
  Pseudomonas bacterial cell count on coated silicone tubing: 0 cfu/mL
Pseudomonas spp. CTO7; [15]
  Pseudomonas bacterial cell count on coated silicone tubing: 0 cfu/mL
Pseudomonas spp. CTO7; [16]
  Pseudomonas bacterial cell count on coated silicone tubing: 300 cfu/mL
Pseudomonas spp. CTO7; [17]
  Pseudomonas bacterial cell count on coated silicone tubing: 200 cfu/mL
Pseudomonas spp. CTO7; [18]
  Pseudomonas bacterial cell count on coated silicone tubing: 21 cfu/mL
Pseudomonas spp. CTO7; [19]
  Pseudomonas bacterial cell count on coated silicone tubing: 4 cfu/mL
Pseudomonas spp. CTO7; [20]
  Pseudomonas bacterial cell count on coated silicone tubing: 0 cfu/mL
Pseudomonas spp. CTO7; [21]
  Pseudomonas bacterial cell count on coated silicone tubing: 300 cfu/mL
Pseudomonas spp. CTO7; [22]
  Pseudomonas bacterial cell count on coated silicone tubing: 110 cfu/mL
Pseudomonas spp. CTO7; [23]
  Pseudomonas bacterial cell count on coated silicone tubing: 11 cfu/mL
Pseudomonas spp. CTO7; [24]
  Pseudomonas bacterial cell count on coated silicone tubing: 0 cfu/mL
Pseudomonas spp. CTO7; [25]
  Pseudomonas bacterial cell count on coated silicone tubing: 0 cfu/mL
Pseudomonas spp. CTO7; [26]
  Pseudomonas bacterial cell count on coated silicone tubing: 300 cfu/mL
Pseudomonas spp. CTO7; [27]
  Pseudomonas bacterial cell count on coated silicone tubing: 70 cfu/mL
Pseudomonas spp. CTO7; [28]
  Pseudomonas bacterial cell count on coated silicone tubing: 5 cfu/mL
Pseudomonas spp. CTO7; [29]
  Pseudomonas bacterial cell count on coated silicone tubing: 0 cfu/mL
Pseudomonas spp. CTO7; [30]
  Pseudomonas bacterial cell count on coated silicone tubing: 0 cfu/mL
Pseudomonas spp. CTO7; [31]
  Pseudomonas bacterial cell count on coated silicone tubing: 289 cfu/mL
Pseudomonas spp. CTO7; [32]
  Pseudomonas bacterial cell count on coated silicone tubing: 31 cfu/mL
Pseudomonas spp. CTO7; [33]
  Pseudomonas bacterial cell count on coated silicone tubing: 0 cfu/mL
Pseudomonas spp. CTO7; [34]
  Pseudomonas bacterial cell count on coated silicone tubing: 0 cfu/mL
Pseudomonas spp. CTO7; [35]
  Pseudomonas bacterial cell count on coated silicone tubing: 0 cfu/mL
